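48-hour exposure; five concentrations; linearly interpolated endpoints. GI50 is the concentration that inhibits growth by half.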 Activity calls are given as the source filed them. Cut-off read from the data, not from the text of the source: active = GI50 up to about 1.1 µM and inactive = higher.
How the values were obtained:
Test in all cases: DTP human tumour cell line panel, 48 h
[1] = system: HL-60
[2] = system: A549
[3] = system: OVCAR-4
[4] = system: RXF 393
[5] = system: OVCAR-3
[6] = system: SNB-75
[7] = system: TK-10
[8] = system: 786-0
[9] = system: OVCAR-8
[10] = system: SK-MEL-28
[11] = system: LOX IMVI
[12] = system: HT-29
[13] = system: UACC-62
[14] = system: HOP-92
[15] = system: SNB-19
[16] = system: UACC-257
[17] = system: MDA-N
[18] = system: MDA-MB-231
[19] = system: CAKI-1
[20] = system: U-251
[21] = system: IGROV-1
[22] = system: SN12C
[23] = system: UO-31
[24] = system: SK-MEL-5
[25] = system: NCI-H23
[26] = system: M14
[27] = system: MCF7
[28] = system: COLO 205
[29] = system: MOLT-4
[30] = system: HCC 2998
[31] = system: HCT-15
[32] = system: HOP-62
[33] = system: PC-3
[34] = system: SF-268
[35] = system: EKVX
[36] = system: CCRF-CEM
[37] = system: NCI-H522
[38] = system: ACHN
[39] = system: NCI-H460
[40] = system: SW-620
[41] = system: T47D
[42] = system: SF-295
[43] = system: HCT-116
[44] = system: Hs-578T
[45] = system: SR
[46] = system: OVCAR-5
[47] = system: SK-MEL-2
[48] = system: NCI-H226
[49] = system: NCI/ADR-RES
[50] = system: BT-549
[51] = system: DU-145
[52] = system: MDA-MB-435
[53] = system: K562
[54] = system: Malme-3M
[55] = system: KM12
[56] = system: SF-539
[57] = system: A498
[58] = system: RPMI-8226
[59] = system: SK-OV-3

CC(NC(=O)OCc1ccccc1)NC(=O)OC(C)(C)C (stereo not drawn)
GI50 [1]: > 100 µM (inactive) | GI50 [2]: > 100 µM (inactive) | GI50 [3]: > 100 µM (inactive) | GI50 [4]: 1.24 µM (inactive) | GI50 [5]: > 100 µM (inactive) | GI50 [6]: > 100 µM (inactive) | GI50 [7]: > 100 µM (inactive) | GI50 [8]: > 100 µM (inactive) | GI50 [9]: > 100 µM (inactive) | GI50 [10]: > 100 µM (inactive) | GI50 [11]: > 100 µM (inactive) | GI50 [12]: > 100 µM (inactive) | GI50 [13]: > 100 µM (inactive) | GI50 [14]: > 100 µM (inactive) | GI50 [15]: > 100 µM (inactive) | GI50 [16]: > 100 µM (inactive) | GI50 [17]: > 100 µM (inactive) | GI50 [18]: > 100 µM (inactive) | GI50 [19]: > 100 µM (inactive) | GI50 [20]: > 100 µM (inactive) | GI50 [21]: > 100 µM (inactive) | GI50 [22]: > 100 µM (inactive) | GI50 [23]: > 100 µM (inactive) | GI50 [24]: > 100 µM (inactive) | GI50 [25]: > 100 µM (inactive) | GI50 [26]: > 100 µM (inactive) | GI50 [27]: > 100 µM (inactive) | GI50 [28]: > 100 µM (inactive) | GI50 [29]: 84.9 µM (inactive) | GI50 [30]: > 100 µM (inactive) | GI50 [31]: > 100 µM | GI50 [32]: > 100 µM (inactive) | GI50 [33]: > 100 µM (inactive) | GI50 [34]: > 100 µM (inactive) | GI50 [35]: > 100 µM (inactive) | GI50 [36]: > 100 µM (inactive) | GI50 [37]: > 100 µM (inactive) | GI50 [38]: > 100 µM (inactive) | GI50 [39]: 73.6 µM (inactive) | GI50 [40]: > 100 µM (inactive) | GI50 [41]: > 100 µM (inactive) | GI50 [42]: > 100 µM (inactive) | GI50 [43]: > 100 µM (inactive) | GI50 [44]: > 100 µM (inactive) | GI50 [45]: > 100 µM (inactive) | GI50 [46]: > 100 µM (inactive) | GI50 [47]: > 100 µM (inactive) | GI50 [48]: > 100 µM (inactive) | GI50 [49]: > 100 µM (inactive) | GI50 [50]: > 100 µM (inactive) | GI50 [51]: > 100 µM (inactive) | GI50 [52]: > 100 µM (inactive) | GI50 [53]: > 100 µM (inactive) | GI50 [54]: > 100 µM (inactive) | GI50 [55]: > 100 µM (inactive) | GI50 [56]: > 100 µM (inactive) | GI50 [57]: > 100 µM (inactive) | GI50 [58]: 51.6 µM (inactive) | GI50 [59]: > 100 µM (inactive)

Cc1cc(C)c2c(O)cc(-c3ccc(Cl)cc3)nc2n1
GI50 [1]: 23.1 µM (inactive) | GI50 [2]: 30.6 µM (inactive) | GI50 [3]: 21.6 µM (inactive) | GI50 [4]: 43.7 µM (inactive) | GI50 [5]: 26.9 µM (inactive) | GI50 [6]: 33.2 µM (inactive) | GI50 [7]: > 100 µM (inactive) | GI50 [8]: > 46.5 µM (inactive) | GI50 [9]: > 100 µM (inactive) | GI50 [10]: 28.3 µM (inactive) | GI50 [11]: 35.5 µM (inactive) | GI50 [12]: 19.9 µM (inactive) | GI50 [13]: 60.4 µM (inactive) | GI50 [14]: 9.27 µM (inactive) | GI50 [15]: 94 µM (inactive) | GI50 [16]: 24.4 µM (inactive) | GI50 [17]: 7.11 µM (inactive) | GI50 [18]: > 27.9 µM (inactive) | GI50 [19]: 37.4 µM (inactive) | GI50 [20]: 36.8 µM (inactive) | GI50 [21]: 27.4 µM (inactive) | GI50 [22]: > 33 µM (inactive) | GI50 [23]: 41.8 µM (inactive) | GI50 [24]: 17.1 µM (inactive) | GI50 [25]: 75 µM (inactive) | GI50 [26]: 25.7 µM (inactive) | GI50 [27]: 27.2 µM (inactive) | GI50 [28]: 24.7 µM (inactive) | GI50 [29]: 22.5 µM (inactive) | GI50 [30]: 27.6 µM (inactive) | GI50 [31]: 21.9 µM | GI50 [32]: 44.8 µM (inactive) | GI50 [33]: 14.9 µM (inactive) | GI50 [34]: > 100 µM (inactive) | GI50 [35]: > 56.2 µM (inactive) | GI50 [36]: 69.3 µM (inactive) | GI50 [37]: 46.8 µM (inactive) | GI50 [38]: 48 µM (inactive) | GI50 [39]: 25.8 µM (inactive) | GI50 [40]: 26.6 µM (inactive) | GI50 [41]: 40 µM (inactive) | GI50 [42]: 28.2 µM (inactive) | GI50 [43]: 24.2 µM (inactive) | GI50 [44]: > 100 µM (inactive) | GI50 [45]: 37.6 µM (inactive) | GI50 [46]: > 100 µM (inactive) | GI50 [47]: 47 µM (inactive) | GI50 [48]: > 100 µM (inactive) | GI50 [49]: > 31.8 µM (inactive) | GI50 [50]: 23.6 µM (inactive) | GI50 [51]: 54.1 µM (inactive) | GI50 [52]: 6.79 µM (inactive) | GI50 [53]: 9.79 µM (inactive) | GI50 [54]: 30.8 µM (inactive) | GI50 [55]: 16.3 µM (inactive) | GI50 [56]: > 100 µM (inactive) | GI50 [57]: 32.4 µM (inactive) | GI50 [58]: 30.3 µM (inactive) | GI50 [59]: 84.9 µM (inactive)

Reference: ChEMBL document CHEMBL1201862, “PubChem BioAssay data set” (2004)
